# Laboratory results as given in ChEMBL document CHEMBL1201862, “PubChem BioAssay data set” (2004).
#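 Briefly, cells in 96-well plates were exposed to five compound concentrations for 48 h, and endpoints were estimated by linear interpolation. Abbreviation: GI50, concentration required for 50% inhibition of growth.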 Active and inactive are the calls of the source. Rule as the data show it: active = GI50 up to about 1.1 µM and inactive = higher.
# Experiments:
# Assay in all cases: DTP human tumour cell line panel, 48 h
# [1] = test system: 786-0
# [2] = test system: A498
# [3] = test system: A549
# [4] = test system: ACHN
# [5] = test system: CAKI-1
# [6] = test system: CCRF-CEM
# [7] = test system: COLO 205
# [8] = test system: DLD-1
# [9] = test system: DMS-114
# [10] = test system: DMS-273
# [11] = test system: EKVX
# [12] = test system: HCC 2998
# [13] = test system: HCT-116
# [14] = test system: HCT-15
# [15] = test system: HL-60
# [16] = test system: HOP-62
# [17] = test system: HOP-92
# [18] = test system: HT-29
# [19] = test system: IGROV-1
# [20] = test system: K562
# [21] = test system: KM12
# [22] = test system: LOX IMVI
# [23] = test system: LXFL 529
# [24] = test system: M14
# [25] = test system: M19-MEL
# [26] = test system: MOLT-4
# [27] = test system: Malme-3M
# [28] = test system: NCI-H23
# [29] = test system: NCI-H460
# [30] = test system: NCI-H522
# [31] = test system: OVCAR-3
# [32] = test system: OVCAR-4
# [33] = test system: OVCAR-5
# [34] = test system: OVCAR-8
# [35] = test system: RPMI-8226
# [36] = test system: RXF 393
# [37] = test system: SF-268
# [38] = test system: SF-295
# [39] = test system: SF-539
# [40] = test system: SK-MEL-28
# [41] = test system: SK-MEL-2
# [42] = test system: SK-MEL-5
# [43] = test system: SK-OV-3
# [44] = test system: SN12C
# [45] = test system: SNB-19
# [46] = test system: SNB-75
# [47] = test system: SNB-78
# [48] = test system: SW-620
# [49] = test system: TK-10
# [50] = test system: U-251
# [51] = test system: UACC-257
# [52] = test system: UACC-62
# [53] = test system: UO-31
# [54] = test system: BT-549
# [55] = test system: DU-145
# [56] = test system: Hs-578T
# [57] = test system: MCF7
# [58] = test system: MDA-MB-231
# [59] = test system: MDA-MB-435
# [60] = test system: MDA-N
# [61] = test system: NCI-H226
# [62] = test system: NCI/ADR-RES
# [63] = test system: PC-3
# [64] = test system: SR
# [65] = test system: T47D
# [66] = test system: KM-20L2
structure (smiles),measurement,setting,value
O=C1c2ccccc2C(=O)c2c(O)ccc(O)c21 [QUINIZARIN],GI50,[1],> 100 µM (inactive)
same,GI50,[2],> 100 µM (inactive)
same,GI50,[3],81.3 µM (inactive)
same,GI50,[4],> 100 µM (inactive)
same,GI50,[5],> 100 µM (inactive)
same,GI50,[6],> 100 µM (inactive)
same,GI50,[7],> 100 µM (inactive)
same,GI50,[8],61.9 µM (inactive)
same,GI50,[9],> 100 µM (inactive)
same,GI50,[10],> 100 µM (inactive)
same,GI50,[11],58.7 µM (inactive)
same,GI50,[12],81.1 µM (inactive)
same,GI50,[13],> 100 µM (inactive)
same,GI50,[14],> 100 µM
same,GI50,[15],> 100 µM (inactive)
same,GI50,[16],> 100 µM (inactive)
same,GI50,[17],> 100 µM (inactive)
same,GI50,[18],45.3 µM (inactive)
same,GI50,[19],> 100 µM (inactive)
same,GI50,[20],> 100 µM (inactive)
same,GI50,[21],60.5 µM (inactive)
same,GI50,[22],> 100 µM (inactive)
same,GI50,[23],> 100 µM (inactive)
same,GI50,[24],> 100 µM (inactive)
same,GI50,[25],21.8 µM (inactive)
same,GI50,[26],52 µM (inactive)
same,GI50,[27],> 100 µM (inactive)
same,GI50,[28],> 100 µM (inactive)
same,GI50,[29],40.8 µM (inactive)
same,GI50,[30],> 100 µM (inactive)
same,GI50,[31],29.2 µM (inactive)
same,GI50,[32],> 100 µM (inactive)
same,GI50,[33],> 100 µM (inactive)
same,GI50,[34],> 100 µM (inactive)
same,GI50,[35],91 µM (inactive)
same,GI50,[36],> 100 µM (inactive)
same,GI50,[37],> 100 µM (inactive)
same,GI50,[38],> 100 µM (inactive)
same,GI50,[39],> 100 µM (inactive)
same,GI50,[40],> 100 µM (inactive)
same,GI50,[41],79.8 µM (inactive)
same,GI50,[42],63.1 µM (inactive)
same,GI50,[43],> 100 µM (inactive)
same,GI50,[44],> 100 µM (inactive)
same,GI50,[45],> 100 µM (inactive)
same,GI50,[46],> 100 µM (inactive)
same,GI50,[47],> 100 µM (inactive)
same,GI50,[48],93.8 µM (inactive)
same,GI50,[49],> 100 µM (inactive)
same,GI50,[50],> 100 µM (inactive)
same,GI50,[51],> 100 µM (inactive)
same,GI50,[52],> 100 µM (inactive)
same,GI50,[53],59 µM (inactive)
CC(C)COC(=O)OC(=O)c1ccc(N(C)Cc2cnc3nc(N)nc(N)c3n2)cc1,GI50,[1],5.37 µM (inactive)
same,GI50,[2],> 40.4 µM (inactive)
same,GI50,[3],5.61 µM (inactive)
same,GI50,[4],11.4 µM (inactive)
same,GI50,[54],20.9 µM (inactive)
same,GI50,[5],> 32.1 µM (inactive)
same,GI50,[6],3.69 µM (inactive)
same,GI50,[7],> 75.3 µM (inactive)
same,GI50,[55],53.7 µM (inactive)
same,GI50,[11],> 52.7 µM (inactive)
same,GI50,[12],> 100 µM (inactive)
same,GI50,[13],2.43 µM (inactive)
same,GI50,[14],1.75 µM
same,GI50,[15],8.34 µM (inactive)
same,GI50,[16],59.7 µM (inactive)
same,GI50,[17],47.5 µM (inactive)
same,GI50,[18],26.9 µM (inactive)
same,GI50,[56],> 100 µM (inactive)
same,GI50,[19],8.3 µM (inactive)
same,GI50,[20],0.466 µM (active)
same,GI50,[21],26.5 µM (inactive)
same,GI50,[22],1.41 µM (inactive)
same,GI50,[24],9.44 µM (inactive)
same,GI50,[57],6.35 µM (inactive)
same,GI50,[58],> 100 µM (inactive)
same,GI50,[59],> 100 µM (inactive)
same,GI50,[60],7.96 µM (inactive)
same,GI50,[26],4.31 µM (inactive)
same,GI50,[27],36.1 µM (inactive)
same,GI50,[61],> 100 µM (inactive)
same,GI50,[28],11 µM (inactive)
same,GI50,[29],5.64 µM (inactive)
same,GI50,[30],23.1 µM (inactive)
same,GI50,[62],> 36.3 µM (inactive)
same,GI50,[31],> 100 µM (inactive)
same,GI50,[32],> 100 µM (inactive)
same,GI50,[33],> 100 µM (inactive)
same,GI50,[34],6.12 µM (inactive)
same,GI50,[63],2.47 µM (inactive)
same,GI50,[35],> 80.9 µM (inactive)
same,GI50,[36],16.1 µM (inactive)
same,GI50,[37],9.89 µM (inactive)
same,GI50,[38],15.7 µM (inactive)
same,GI50,[39],10.8 µM (inactive)
same,GI50,[40],> 86.1 µM (inactive)
same,GI50,[41],> 100 µM (inactive)
same,GI50,[42],5.22 µM (inactive)
same,GI50,[43],> 100 µM (inactive)
same,GI50,[44],> 100 µM (inactive)
same,GI50,[45],16.1 µM (inactive)
same,GI50,[46],> 38.2 µM (inactive)
same,GI50,[64],0.521 µM (active)
same,GI50,[48],3.86 µM (inactive)
same,GI50,[65],> 100 µM (inactive)
same,GI50,[49],> 88.1 µM (inactive)
same,GI50,[50],> 29.7 µM (inactive)
same,GI50,[51],47.3 µM (inactive)
same,GI50,[52],6.53 µM (inactive)
same,GI50,[53],> 51.3 µM (inactive)
Cc1[nH]c(O)nc1C(=O)c1ccc(-n2ccnc2)cc1,GI50,[1],> 100 µM (inactive)
same,GI50,[2],> 100 µM (inactive)
same,GI50,[3],> 100 µM (inactive)
same,GI50,[4],> 100 µM (inactive)
same,GI50,[5],> 100 µM (inactive)
same,GI50,[8],> 100 µM (inactive)
same,GI50,[9],> 100 µM (inactive)
same,GI50,[10],> 100 µM (inactive)
same,GI50,[12],> 100 µM (inactive)
same,GI50,[13],> 100 µM (inactive)
same,GI50,[14],> 100 µM
same,GI50,[15],> 100 µM (inactive)
same,GI50,[16],> 100 µM (inactive)
same,GI50,[18],> 100 µM (inactive)
same,GI50,[19],> 100 µM (inactive)
same,GI50,[20],> 100 µM (inactive)
same,GI50,[66],> 100 µM (inactive)
same,GI50,[21],> 100 µM (inactive)
same,GI50,[22],> 100 µM (inactive)
same,GI50,[23],> 100 µM (inactive)
same,GI50,[24],> 100 µM (inactive)
same,GI50,[25],> 100 µM (inactive)
same,GI50,[26],> 100 µM (inactive)
same,GI50,[27],> 100 µM (inactive)
same,GI50,[61],> 100 µM (inactive)
same,GI50,[29],> 100 µM (inactive)
same,GI50,[30],> 100 µM (inactive)
same,GI50,[31],> 100 µM (inactive)
same,GI50,[32],> 100 µM (inactive)
same,GI50,[33],> 100 µM (inactive)
same,GI50,[34],> 100 µM (inactive)
same,GI50,[35],> 100 µM (inactive)
same,GI50,[36],> 100 µM (inactive)
same,GI50,[37],> 100 µM (inactive)
same,GI50,[38],> 100 µM (inactive)
same,GI50,[39],> 100 µM (inactive)
same,GI50,[40],> 100 µM (inactive)
same,GI50,[41],> 100 µM (inactive)
same,GI50,[42],> 100 µM (inactive)
same,GI50,[43],> 100 µM (inactive)
same,GI50,[44],> 100 µM (inactive)
same,GI50,[45],> 100 µM (inactive)
same,GI50,[46],> 100 µM (inactive)
same,GI50,[64],> 100 µM (inactive)
same,GI50,[48],> 100 µM (inactive)
same,GI50,[50],> 100 µM (inactive)
same,GI50,[51],> 100 µM (inactive)
same,GI50,[52],> 100 µM (inactive)
same,GI50,[53],> 100 µM (inactive)
